Results: patent US20210076683A1, “USE OF BACILLUS METHYLOTROPHICUS AS A STIMULANT OF PLANT GROWTH AND BIOLOGICAL CONTROL MEANS, AND ISOLATES OF SAID SPECIES” (UNIVERSIDAD DE GRANADA, priority 2014, published 2021)
*1 amine or outer side, *2 acyl side, *3 side chain or, on linkers, in order; H or OH if unused. Where a SMILES comes first, the peptide text is derived from it. Bridges are numbered along the chain shown (N, C = ends). [ ]: non-standard residue; d: D form. X1 = CC(C)CCCCCCCCC[C@H](CC(=O)[*:1])O[*:2]

Columns and labels:
Anthocoris nemoralis = assay: Mortality by ingestion in Anthocoris nemoralis; conditions: observed 6 days; cultures 5×10^8 CFU/ml, surfactants and Tween 80 1/1000; water control 10
[1] = Surfactant activity of the lipopeptides (CMC, surface tension); assay type: physicochemical; conditions: at the CMC 0.0025%
From the text: After extracting the lipopeptides following the method of Cooper et al. 1981, a yield of 0.12 g/l and 0.10 g/l of culture was obtained for strains XT1 and XT2, respectively. The type strain produced 0.6 g/l. Lipopeptide production has not been described in the case of the Bacillus strain of the commercial preparation Botrybel. More specifically, in addition to surfactin, strain XT1 object of the present invention produces other surfactant lipopeptides such as fengycin and lichenysin.
The cellular dry weight (CDW) of strains XT1, XT2 and of type strain is 2.7 g/l, 2.5 g/l and 2.9 g/l, respectively. In the case of strain XT1, the critical micelle concentration (CMC) is 0.0025% (0.025 mg/ml); a surface tension of 29.7 mN/m was obtained with this value. In the case of the surfactin produced by B. subtilis and marketed by Sigma®, values of 26.7 mN/m at the same CMC were obtained. In other words, strain XT1 produces very active lipopeptides surfactants showing activity similar to the surfactin available on the market.

surface tension [1] [mN/m] | Compound | Mortality by ingestion (Anthocoris nemoralis)
 | Tween 80 | 5 percentage of individuals
26.7 | CC(C)CCCCCCCCC[C@@H]1CC(=O)N[C@@H](CCC(=O)O)C(=O)N[C@@H](CC(C)C)C(=O)N[C@H](CC(C)C)C(=O)N[C@@H](C(C)C)C(=O)N[C@@H](CC(=O)O)C(=O)N[C@H](CC(C)C)C(=O)N[C@@H](CC(C)C)C(=O)O1 [surfactin] (EL[dL]VD[dL]L; linker N-C via X1) | 
